Molecular target: T1, PatD (Prochloron didemni, UniProt Q52QI6)
T1 sequence (Q52QI6 1-784): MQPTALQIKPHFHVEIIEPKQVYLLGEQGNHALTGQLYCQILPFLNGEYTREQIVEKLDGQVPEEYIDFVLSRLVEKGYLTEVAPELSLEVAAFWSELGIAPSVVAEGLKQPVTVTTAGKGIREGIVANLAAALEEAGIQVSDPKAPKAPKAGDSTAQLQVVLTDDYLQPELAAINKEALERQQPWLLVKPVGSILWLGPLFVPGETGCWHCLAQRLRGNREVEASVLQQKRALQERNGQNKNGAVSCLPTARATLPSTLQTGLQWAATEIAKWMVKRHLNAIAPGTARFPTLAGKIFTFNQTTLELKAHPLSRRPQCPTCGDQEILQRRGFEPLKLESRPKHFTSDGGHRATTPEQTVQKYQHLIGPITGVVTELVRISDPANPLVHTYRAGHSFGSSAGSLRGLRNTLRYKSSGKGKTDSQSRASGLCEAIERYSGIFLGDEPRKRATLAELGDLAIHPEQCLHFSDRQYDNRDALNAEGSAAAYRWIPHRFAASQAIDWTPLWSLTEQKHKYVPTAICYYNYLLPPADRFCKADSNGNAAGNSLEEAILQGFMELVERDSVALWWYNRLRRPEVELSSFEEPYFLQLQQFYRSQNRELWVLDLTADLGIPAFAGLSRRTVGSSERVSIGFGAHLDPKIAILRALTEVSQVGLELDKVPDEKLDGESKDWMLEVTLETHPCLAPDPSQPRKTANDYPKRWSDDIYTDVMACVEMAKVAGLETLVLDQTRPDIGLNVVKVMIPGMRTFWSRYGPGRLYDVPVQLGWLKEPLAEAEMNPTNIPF
Conditions: ATP 100 μM, TruE2 2 μM, PatD 0.6 μM, MgCl2, DTT, 30 min

HPLC of ATP hydrolysis to ADP: ATP was shown to be hydrolyzed to ADP
SMILES: Nc1ncnc2c1ncn2[C@@H]1O[C@H](COP(=O)(O)OP(=O)(O)OP(=O)(O)O)[C@@H](O)[C@H]1O [ATP]

From article PMC3397156 (Chembiochem, 2010)
